Source: patent US20090137580A1, “Fused Heterocyclic Derivatives and Use Thereof” (Takeda Pharmaceutical Company Limited, priority 2005, published 2009)

What was measured:
[1] = target: T1, VEGF Receptor 2 Kinase (VEGFR2) (Homo sapiens, UniProt P35968); assay: Determination of VEGF receptor 2 kinase (VEGFR2) inhibitory activity (alpha screen); assay type: biochemical; conditions: VEGFR2 intracellular domain protein, 25 μM ATP buffer, read-out: inhibitory rate (kinase inhibitory rate of VEGFR2)
T1 construct: made in house; host or cells: SF-21 insect cells, recombinant baculovirus BAC-VEGFR2 (pFASTBAC1)
Procedure: For cloning of human VEGF receptor 2 (hereinafter to be abbreviated as VEGFR2) gene, PCR was performed using cDNA Libraries Human Placenta (Clontech) as a template. The primer used for PCR was prepared by, based on the information of the base sequence (Genbank Accession AF035121) of VEGFR2 gene, adding a base sequence encoding the flag peptide and a restriction enzyme recognition sequence to the base sequence (2671-4374 of Genbank Accession AF035121) encoding the VEGFR2 intracellular domain, so that a flag tag would be added to the N terminal of the protein. The primer base sequence is shown in the following.
PCR reaction was carried out using a KOD-plus kit (TOYOBO). The obtained PCR product was electrophoresed on an agarose gel (1%), and a DNA fragment amplified by PCR was recovered from the gel and digested with restriction enzymes Sal I and Sph I. The DNA after the restriction enzyme treatment was electrophoresed on an agarose gel (1%), and the obtained DNA fragment was recovered and ligated to the plasmid pFASTBAC1 (Invitrogen) digested with restriction enzymes Sal I and Sph I to give an expression plasmid pFB-VEGFR2. The base sequence of the inserted fragment was confirmed to have matched with the base sequence (2671-4374 of Genbank Accession AF035121) of the VEGFR2 intracellular domain. Furthermore, virus stock BAC-VEGFR2 of the recombinant Baculovirus was prepared using BAC-TO-BAC Baculovirus Expression System (Invitrogen).
SF-21 cells were inoculated into 1 L of Sf-900IISFM medium (Invitrogen) containing 10% fetal calf serum (trace), 50 mg/L Gentamicin (Invitrogen) and 0.1% Pluronic F-68 (Invitrogen) at 1×10^6 cells/ml, and shake culture was performed using a 2 L Erlenmeyer flask at 27° C., 100 rpm. After 24 hr of culture, recombinant Baculovirus BAC-VEGFR2 (13.4 mL) was added, and the culture was continued for 3 days. The culture medium was centrifuged at 2,000 rpm for 5 min to give virus-infected cells. The infected cells were washed with phosphate buffered saline (Invitrogen), centrifuged under the same conditions, and preserved at −80° C. The cryopreserved cells were thawed in ice, suspended in 30 mL of buffer A (Tris buffer, pH 7.4, containing 20% glycerol and 0.15M NaCl (50 mM)) supplemented with Complete Protease Inhibitor (Boehringer), and disrupted three times using a polytron homogenizer (Kinematica) at 20,000 rpm, 30 sec. The disrupt was clarified by centrifugation at 40,000 rpm, 30 min and filtered through a 0.45 μm filter. The filtrate was passed through a column packed with Anti-FLAG M2 Affinity Gel (Sigma Ltd., 4 mL) at a flow rate of about 0.5 mL/min. The column was washed with buffer A and eluted with buffer A containing 100 μg/mL FLAG peptide. The eluate was concentrated by Vivaspin 20 (Viva Science) having a fraction molecular weight of 30K. The concentrate was applied to NAP™ 25 column (Amersham Biosciences) equilibrated with buffer A for buffer exchange. The fractions containing the VEGFR2 intracellular domain protein were collected, glycerol was added to the final concentration of 50% and the fractions cryopreserved at ˜80° C.
The test compound dissolved in dimethyl sulfoxide (DMSO) was diluted with a buffer (50 mM Tris-HCl, pH 7.5, 5 mM MgCl2, 5 mM MnCl2, 2 mM dithiothreitol, 0.01% Tween-20). A buffer (10 μl) containing 50 ng/ml VEGFR2 intracellular domain protein and 250 ng/ml biotin-labeled polypeptide biotinyl-poly-Glu:Tyr (4:1) (CIS Bio International) was added to the compound solution (5 μl). A buffer (10 μl) containing 25 μM ATP was added to the obtained mixture, the mixture was allowed to react at 25° C. for 5 min. Then, 25 μl of a stop solution (100 mM EDTA·2 sodium salt, 62.5 mM HEPES buffer (pH 7.4), 250 mM NaCl, 0.1% bovine serum albumin, 10 μg/ml Streptavidin Donor beads: PerkinElmer for alpha screen assay, 10 μg/ml Anti-phosphotyrosine (P-Tyr-100) Acceptor beads: PerkinElmer for alpha screen assay) was added to quench the reaction. […]

[2] = target: T2, PDGFR Alpha Receptor Kinase (PDGFRalpha) (Homo sapiens, UniProt P16234); assay: Determination of PDGFR alpha receptor kinase (PDGFRalpha) inhibitory activity (alpha screen); assay type: biochemical; conditions: PDGFRalpha intracellular domain protein, 25 μM ATP buffer; read-out: IC50 value (PDGFRalpha kinase inhibition)
T2 construct: PDGFRalpha intracellular domain protein (UPSTATE); purchased UPSTATE
Procedure: The test compound dissolved in dimethyl sulfoxide (DMSO) was diluted with a buffer (50 mM Tris-HCl, pH 7.5, 5 mM MgCl2, 5 mM MnCl2, 2 mM dithiothreitol, 0.01% Tween-20).
Acceptor beads: PerkinElmer for alpha screen assay) was added to quench the reaction. The reaction solution was stood at 25° C. for 16 hr, and the count was measured using a plate reader·Fusion™ (manufactured by PerkinElmer). The kinase inhibitory rate (%) of the test compound was calculated by the following formula.
Inhibitory rate(%)=(1−(count of test compound−blank)÷(control−blank))×100
wherein the count of the solution reacted without addition of the compound is “control” and the count of the solution without addition of the compound and ATP is “blank”.

[3] = tested on: Human umbilical vein endothelial cells (HUVEC); assay: Vascular endothelial cell growth inhibitory test; assay type: cell-based; conditions: Homo sapiens, 120 h, VEGF 120 ng/mL, culture 5 days, XTT reagent
Procedure: Human umbilical vein endothelial cells (HUVEC, purchased from KURABO) were cultured in a gas incubator (37° C., CO2 5%) in a vascular endothelial cell medium (Invitrogen) containing 5% fetal calf serum and a basic fibroblast growth factor (2.5 ng/mL). To be specific, HUVEC suspended in the aforementioned vascular endothelial cell medium (Invitrogen) containing 5% fetal calf serum were seeded into a 96 well flat-bottom plate (50 μL, 3000 cells each well). After culturing overnight, various concentrations of test substance and the final concentration (120 ng/mL) of vascular endothelial growth factor (VEGF) were dissolved in a vascular endothelial cell medium (Invitrogen) containing 5% fetal calf serum and added to each well (50 μL). After culturing for 5 days, an XTT reagent (Wako Pure Chemical Industries, Ltd.) was added to each well (10 μL), and reacted in a gas incubator (37° C., CO2 5%) for 2-3 hr. The absorbance at 450 nm was measured by a microtiter plate reader, and the cell growth inhibitory activity was determined.

T2 sequence (P16234 550-1089 limits assumed): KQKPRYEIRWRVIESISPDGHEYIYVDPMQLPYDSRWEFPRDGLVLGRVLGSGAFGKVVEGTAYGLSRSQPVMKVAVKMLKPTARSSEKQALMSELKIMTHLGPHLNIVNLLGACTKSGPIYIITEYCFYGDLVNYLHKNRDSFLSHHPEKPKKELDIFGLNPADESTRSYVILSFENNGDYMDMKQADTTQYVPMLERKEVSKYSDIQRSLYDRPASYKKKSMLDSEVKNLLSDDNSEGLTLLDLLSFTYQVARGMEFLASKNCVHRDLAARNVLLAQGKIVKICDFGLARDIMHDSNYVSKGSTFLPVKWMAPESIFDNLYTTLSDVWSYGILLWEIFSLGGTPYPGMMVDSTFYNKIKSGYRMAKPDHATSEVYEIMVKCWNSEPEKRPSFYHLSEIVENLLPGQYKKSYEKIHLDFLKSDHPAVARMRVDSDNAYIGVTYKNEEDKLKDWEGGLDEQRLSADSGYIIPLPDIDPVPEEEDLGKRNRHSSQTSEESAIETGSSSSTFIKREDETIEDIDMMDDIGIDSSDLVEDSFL
T1 sequence (P35968 786-1356 limits assumed): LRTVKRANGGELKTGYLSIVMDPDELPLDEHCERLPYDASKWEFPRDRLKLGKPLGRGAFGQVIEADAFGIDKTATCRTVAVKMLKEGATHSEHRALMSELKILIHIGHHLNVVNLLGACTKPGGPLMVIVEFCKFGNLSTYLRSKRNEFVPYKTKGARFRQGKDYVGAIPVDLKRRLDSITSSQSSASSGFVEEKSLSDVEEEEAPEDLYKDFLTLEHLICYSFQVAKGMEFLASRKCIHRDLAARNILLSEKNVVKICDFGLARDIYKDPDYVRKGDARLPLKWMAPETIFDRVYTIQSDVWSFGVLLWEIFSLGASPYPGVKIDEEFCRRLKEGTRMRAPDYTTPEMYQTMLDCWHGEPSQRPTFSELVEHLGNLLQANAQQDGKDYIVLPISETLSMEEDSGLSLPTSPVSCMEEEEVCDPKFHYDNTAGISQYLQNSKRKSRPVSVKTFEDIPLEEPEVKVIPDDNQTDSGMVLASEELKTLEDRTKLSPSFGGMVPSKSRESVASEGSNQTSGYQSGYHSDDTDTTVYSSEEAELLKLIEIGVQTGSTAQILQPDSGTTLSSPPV

Cn1ccc2ncnc(Oc3ccc(NC(=O)Nc4cccc(C(F)(F)F)c4)c(Cl)c3)c21 [Example 15, N-{2-chloro-4-[(5-methyl-5H-pyrrolo[3,2-d]pyrimidin-4-yl)oxy]phenyl}-N′-[3-(trifluoromethyl)phenyl]urea] gave an inhibition at 1 µM [1] of no less than 90%, an IC50 [2] of no more than 500 nM and an IC50 [3] of 8.2 nM.
With Cn1ccc2ncnc(Oc3ccc(NC(=O)Nc4cccc(OC(F)(F)F)c4)c(Cl)c3)c21 [Example 20, N-{2-chloro-4-[(5-methyl-5H-pyrrolo[3,2-d]pyrimidin-4-yl)oxy]phenyl}-N′-[3-(trifluoromethoxy)phenyl]urea] the inhibition at 1 µM [1] was no less than 90%, the IC50 [2] was no more than 500 nM and the IC50 [3] was 6.6 nM.
In the case of Cc1cc(Oc2ncnc3ccn(C)c23)ccc1NC(=O)Nc1cccc(C(F)(F)F)c1 [Example 41, N-{2-methyl-4-[(5-methyl-5H-pyrrolo[3,2-d]pyrimidin-4-yl)oxy]phenyl}-N′-[3-(trifluoromethyl)phenyl]urea], the inhibition at 1 µM [1] is reported as no less than 90%, the IC50 [2] is reported as no more than 500 nM and the IC50 [3] is reported as 19 nM.
CCn1ccc2ncnc(Oc3ccc(NC(=O)Nc4cccc(C(F)(F)F)c4)c(Cl)c3)c21 [Example 47, N-{2-chloro-4-[(5-ethyl-5H-pyrrolo[3,2-d]pyrimidin-4-yl)oxy]phenyl}-N′-[3-(trifluoromethyl)phenyl]urea] showed an inhibition at 1 µM [1] of no less than 90%, an IC50 [2] of no more than 500 nM and an IC50 [3] of 11 nM.
